Results from ChEMBL document CHEMBL5550097, “Drug-drug conjugates of MEK and Akt inhibitors for RAS-mutant cancers” (Bioorg Med Chem, 2024).

Details: human, microsomes, 1 h, 10 µM
Description: Metabolic stability in human liver microsomes at 10 uM preincubated for 5 mins followed by NADPH addition and measured upto 60 mins by LC-MS/MS method

## Cc1ncc2n1-c1ccc(Cl)cc1C(c1ccccc1F)=NC2 [MIDAZOLAM]
  Stability: Unstable
